≈ marks a conversion by molar mass, not a printed value.
Legend:
Cathepsin K = molecular target: T1, Cathepsin K (Homo sapiens, UniProt P43235); assay: Inhibition of recombinant human cathepsin K by fluorescence assay
T1 sequence (P43235 whole entry): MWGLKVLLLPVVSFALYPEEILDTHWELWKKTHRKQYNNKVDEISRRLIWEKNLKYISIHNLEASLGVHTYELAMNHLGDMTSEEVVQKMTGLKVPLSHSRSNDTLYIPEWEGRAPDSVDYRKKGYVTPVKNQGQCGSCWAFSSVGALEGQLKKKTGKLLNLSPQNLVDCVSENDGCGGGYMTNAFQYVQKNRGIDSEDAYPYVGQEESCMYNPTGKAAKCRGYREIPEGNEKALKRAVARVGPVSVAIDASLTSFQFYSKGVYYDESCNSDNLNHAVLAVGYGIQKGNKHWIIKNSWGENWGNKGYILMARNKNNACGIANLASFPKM

[1] = Clearance in Han Wistar rat; format: ADME, organism-based; conditions: in vivo
[2] = Oral bioavailability in Han Wistar rat; format: ADME, organism-based; conditions: in vivo
[3] = Volume of distribution in Han Wistar rat; format: ADME, organism-based; conditions: in vivo, read-out: Vss
[4] = Permeability in MDCK cell line; format: ADME, cell-based, Canis lupus familiaris; conditions: dog
[5] = Half life in Han Wistar rat iv; format: ADME, organism-based; conditions: in vivo
[6] = Solubility in fasted state-simulated intestinal fluid at pH 6.8; format: physicochemical

Structure (SMILES) | IC50 (Cathepsin K) [nM] | clearance [1] [mL/min/kg] | bioavailability [2] [%] | Vd [3] [L/kg] | Papp [4] [×10⁻⁶ cm/s] | half-life [5] [h] | solubility [6] [µg/mL]
CCCC[C@H](NC(=O)O[C@@H]1C(=O)N(C(=O)c2cccnc2)CC1(C)C)C(=O)C(=O)N[C@H](C)c1ccccc1 | 14 | 34 | 45 | 0.55 | 21 | 1.57 | 85 (≈ 163 µM)
CCCC[C@H](NC(=O)O[C@@H]1C(=O)N(C(=O)Oc2ccc3ccccc3c2)CC1(C)C)C(=O)C(=O)N[C@H](C)c1ccccc1 | 58 |  |  |  |  |  | 
CCCC[C@H](NC(=O)O[C@@H]1C(=O)N(C(=O)Oc2ccc(-c3ccccc3)cc2)CC1(C)C)C(=O)C(=O)N[C@H](C)c1ccccc1 | 5 |  |  |  |  |  | 
CCCC[C@H](NC(=O)O[C@@H]1C(=O)N(C(=O)Nc2ccc(C(F)(F)F)cc2)CC1(C)C)C(=O)C(=O)Nc1cc[nH]n1 | 0.42 | 77 | 26 | 2.6 | 1.8 | 1.25 | 140 (≈ 247 µM)
CCCC[C@H](NC(=O)O[C@@H]1C(=O)N(C(=O)Nc2ccccc2)CC1(C)C)C(=O)C(=O)N[C@H](C)c1ccccc1 | 4.3 |  |  |  |  |  | 
CCCC[C@H](NC(=O)O[C@@H]1C(=O)N(C(=O)Oc2ccccc2)CC1(C)C)C(=O)C(=O)N[C@H](C)c1ccccc1 | 29 |  |  |  |  |  | 
CCCC[C@H](NC(=O)O[C@@H]1C(=O)N(C(=O)Nc2ccc(C(F)(F)F)cc2)CC1(C)C)C(=O)C(=O)N[C@H](C)c1ccccc1 | 2.1 |  |  |  |  |  | 
CCCC[C@H](NC(=O)O[C@@H]1C(=O)N(C(=O)Nc2c(C)noc2C)CC1(C)C)C(=O)C(=O)N[C@H](C)c1ccccc1 | 15 | 83 | 8.8 | 1.4 | 1.2 | 0.583 | 320 (≈ 576 µM)
CCCC[C@H](NC(=O)O[C@@H]1C(=O)N(C(=O)CCCc2ccccc2)CC1(C)C)C(=O)C(=O)N[C@H](C)c1ccccc1 | 27 |  |  |  |  |  | 
CCCC[C@H](NC(=O)O[C@@H]1C(=O)N(C(=O)c2nnc(C(F)(F)F)s2)CC1(C)C)C(=O)C(=O)Nc1cc[nH]n1 | 1 | 79 | 13 | 3.3 | 12 | 1.35 | 
CCCC[C@H](NC(=O)O[C@@H]1C(=O)N(C(=O)OCc2ccccc2)CC1(C)C)C(=O)C(=O)N[C@H](C)c1ccccc1 | 24 |  |  |  |  |  | 
CCCC[C@H](NC(=O)O[C@@H]1C(=O)N(C(=O)c2ccc3[nH]ccc3c2)CC1(C)C)C(=O)C(=O)N[C@H](C)c1ccccc1 | 1.7 |  |  |  |  |  | 
CCCC[C@H](NC(=O)O[C@@H]1C(=O)N(C(=O)OCc2ccc(-c3ccccc3)cc2)CC1(C)C)C(=O)C(=O)N[C@H](C)c1ccccc1 | 2.1 |  |  |  |  |  | 
CCCC[C@H](NC(=O)O[C@@H]1C(=O)N(S(=O)(=O)c2ccccc2)CC1(C)C)C(=O)C(=O)N[C@H](C)c1ccccc1 | 8.3 | 27 | 25 | 2.1 |  | 2.5 | 

Further compounds by falling IC50 (Cathepsin K), results first:

IC50 (Cathepsin K) [nM] | clearance [1] [mL/min/kg] | bioavailability [2] [%] | Vd [3] [L/kg] | Papp [4] [×10⁻⁶ cm/s] | half-life [5] [h] | solubility [6] [µg/mL] | Structure (SMILES)
65 |  |  |  |  |  |  | CCCC[C@H](NC(=O)O[C@@H]1C(=O)N(C(=O)c2ccccc2)CC1(C)C)C(=O)C(=O)N[C@H](C)c1ccccc1
32 |  |  |  |  |  |  | CCCC[C@H](NC(=O)O[C@@H]1C(=O)N(C(=O)OCCc2ccccc2)CC1(C)C)C(=O)C(=O)N[C@H](C)c1ccccc1
21 |  |  |  |  |  |  | CCCC[C@H](NC(=O)O[C@@H]1C(=O)N(Cc2ccccc2)CC1(C)C)C(=O)C(=O)N[C@H](C)c1ccccc1
17 |  |  |  |  |  |  | CCCC[C@H](NC(=O)O[C@@H]1C(=O)N(S(=O)(=O)Cc2ccccc2)CC1(C)C)C(=O)C(=O)N[C@H](C)c1ccccc1
16 |  |  |  |  |  |  | CCCC[C@H](NC(=O)O[C@@H]1C(=O)N(C(=O)N2CCOCC2)CC1(C)C)C(=O)C(=O)N[C@H](C)c1ccccc1
8.9 | 18 | 8.6 | 0.5 | 48 | 0.6 | 68 (≈ 133 µM) | CCCC[C@H](NC(=O)O[C@@H]1C(=O)N(C(=O)c2ccno2)CC1(C)C)C(=O)C(=O)N[C@H](C)c1ccccc1
6.9 |  |  |  |  |  |  | CCCC[C@H](NC(=O)O[C@@H]1C(=O)N(C(=O)c2ccc(-c3ccccc3)cc2)CC1(C)C)C(=O)C(=O)N[C@H](C)c1ccccc1
6.6 |  |  |  |  |  |  | CCCC[C@H](NC(=O)O[C@@H]1C(=O)N(C(=O)NCCc2ccccc2)CC1(C)C)C(=O)C(=O)N[C@H](C)c1ccccc1
3.8 | 32 | 21 | 1.4 | 21 | 1.02 | 53 (≈ 96.2 µM) | CCCC[C@H](NC(=O)O[C@@H]1C(=O)N(C(=O)NCc2ccccc2)CC1(C)C)C(=O)C(=O)N[C@H](C)c1ccccc1
3 | 26 | 29 | 1.5 | 41 | 1.05 | 68 (≈ 127 µM) | CCCC[C@H](NC(=O)O[C@@H]1C(=O)N(C(=O)Cc2ccccc2)CC1(C)C)C(=O)C(=O)N[C@H](C)c1ccccc1
2.8 |  |  |  |  |  |  | CCCC[C@H](NC(=O)O[C@@H]1C(=O)N(C(=O)c2cc3ccccc3s2)CC1(C)C)C(=O)C(=O)N[C@H](C)c1ccccc1
1.6 |  |  |  |  |  |  | CCCC[C@H](NC(=O)O[C@@H]1C(=O)N(C(=O)c2ccc3ccccc3c2)CC1(C)C)C(=O)C(=O)N[C@H](C)c1ccccc1
0.81 | 65 | 14 | 2.2 | 25 | 3 | 160 (≈ 296 µM) | CCCC[C@H](NC(=O)O[C@@H]1C(=O)N(C(=O)c2nc3ccccc3s2)CC1(C)C)C(=O)C(=O)Nc1ccn[nH]1

From ChEMBL document CHEMBL1146061, “Novel, potent P2-P3 pyrrolidine derivatives of ketoamide-based cathepsin K inhibitors” (Bioorg Med Chem Lett, 2006)
